Laboratory results from patent US9771585B2, “miR-155 inhibitors for treating cutaneous T cell lymphoma (CTCL)” (miRagen Therapeutics, Inc., priority 2015, dated 2017).
l = locked nucleic acid (LNA); d = 2'-deoxy (DNA)

How the values were obtained:
Format in all cases: cell-based, human
[1] = test system: miR-155; assay: Dual luciferase reporter assay with miR-155 binding site in HeLa cells; conditions: 2 nM oligonucleotide, 10 nM miR-155 mimic, 50 ng reporter
Text: To assess the activity of a miR-155 inhibitor, a dual luciferase reporter assay system was used. In brief, the binding site for miR-155 was cloned into the 3′ UTR of the Renilla luciferase gene located within the commercially-available psiCHECK-2 vector system (Promega). In the absence of a miR-155 inhibitor, the expression of Renilla luciferase protein is repressed by a miR-155 mimic. In the presence of a miR-155 inhibitor, the expression of Renilla luciferase protein is de-repressed. […] Expression of either Renilla or firefly luciferase is measured through detection of light emitted by the luciferase protein.
50 ng of the dual luciferase reporter plasmid containing the miR-155 binding site was transfected into HeLa cells without a miR-155 mimic (“Reporter” only), with 10 nM miR-155 mimic (“Reporter+mimic”), with 10 nM miR-155 mimic and 2 nM of the control oligonucleotide, or with 10 nM miR-155 mimic and 2 nM of a test miR-155 oligonucleotide inhibitor of 11-14 nucleotide lengths (Table 4). The miR-155 mimic was purchased from Dharmacon (miRIDIAN microRNA Human hsa-miR-155-5p mimic; Accession number MIMAT0000646; catalog # C-300647-05-0005) and contains the mature miRNA sequence: -[…]-(SEQ ID NO: 121). The control oligonucleotide used in the experiment had the following sequence: 5′-1Cs.dTs.dAs.1Gs.dAs.1As.dAs.1Gs.1As.dGs.1Ts.dAs.1Gs.1A-3′ (SEQ ID NO: 122).

[2] = test system: miR-155-5p; assay: Real time PCR of miR-155 direct target genes (four-gene signature) in mycosis fungoides cell lines MJ, HuT102, My-La; conditions: for gene expression signature of four direct miR-155-5p targets versus untreated cells: MJ and HuT102 cells, 10 μM, 72 hours; for target de-repression: both HuT102 and MyLa cell lines, compared to compound 3; for antimiR activity by four-gene signature (Bach1, Jarid2, Picalm, Ship1): cumulative across 2, 10 and 50 μM and three mycosis fungoides cell lines, compared to compounds 1 and 3
Procedure: CTCL cell lines were cultured in complete growth medium with the addition of antimiR-155 compound 1 (SEQ ID NO: 27), compound 2 (SEQ ID NO: 22), compound 3 (SEQ ID NO: 23), and compound 4 (SEQ ID NO: 25) at concentrations ranging from 2 μM to 50 μM. The antimiRs were added to the medium without any additional components to enhance cellular uptake. Cells were harvested after 72 hours of treatment and total RNA was purified. Real time PCR was performed for 13 direct gene targets of miR-155 (Worm et al. 2009; O'Connell et al. 2010; Zhang et al. 2012; and miRagen unpublished data). The relative fold-change in the expression of the 13 genes in the antimiR-treated cells compared to the untreated cells was calculated. […] Four predicted direct targets that lacked expression in at least one cell line were omitted. The gene expression fold-changes were log10-transformed, plotted on a grayscale, representing the highest relative increase in gene expression, and conversely, the greatest reduction in gene expression.
Four direct gene targets of miR-155-5p (Bach1, Jarid2, Picalm, and Ship1) were chosen for additional analysis, as these four genes were modulated by antimiR-155 in all three mycosis fungoides cell lines (MJ, HuT102, and My-La). These genes were chosen to represent the gene expression signature for antimiR activity in vitro. Additionally, the four-gene signature was used to compare the activity of the antimiR compounds. These gene changes were reproducible over three independent experiments with cells of varying passage numbers. FIGS. 3, 4, 5, 6, and 7 show the fold-change results of this four-gene signature in the HuT102, MJ, HH, My-La, and Hut78 cell lines, respectively. * p-value <0.0001 vs untreated by nonparametric Mann-Whitney test. The Mann-Whitney test was chosen because the variances are unequal between the treatments compared to untreated cells.
The control oligonucleotide was a 14-nucleotide antimiR targeting a C. elegans miRNA not expressed in mammals (control 1). The second oligo is a scramble of the 14-nucleotide sequence of antimiR-155 compound 4 (control 2). The MJ and HuT102 cell lines were incubated with 10 μM antimiR-155 compounds 3 (SEQ ID NO: 23) or 4 (SEQ ID NO: 25) or the two control oligos for 72 hours.

[3] = test system: miR-155-5p; assay: Whole genome expression profiling of mycosis fungoides cell lines (MJ, HuT102, MyLa)
Procedure: To gain a more complete understanding of the molecular consequences of miR-155 inhibition in mycosis fungoides cell lines, whole genome transcriptome profiling was performed on MJ and HuT102 cell lines treated with antimiR-155 compounds 3 (SEQ ID NO: 23) or 4 (SEQ ID NO: 25) for 4 days (96 hours) or 8 days. The statistically-significant gene expression signature was defined by one-way ANOVA for antimiR-treated cells compared to untreated cells at the same time point. […] The fold-change results are shown in FIGS. 9 and 10 as heat maps, as described for FIG. 2.
(§1) The activity of antimiR-155 compound 4 (SEQ ID NO: 25) was further investigated by treating the third mycosis fungoides cell line, MyLa, with compound 4 (SEQ ID NO: 25) for 4 days and 8 days and profiling the changes in gene expression. To test the specificity of compound 4 (SEQ ID NO: 25), cells of the Sézary syndrome cell line (HuT78) were treated with compound 4 (SEQ ID NO: 25) for 8 days and the changes in gene expression were profiled. Genes that are statistically changed with a false discovery rate (FDR) corrected p-value of <0.05 in response to compound 4 (SEQ ID NO: 25) in three mycosis fungoides cell lines, HuT102, MJ, and My-La, are depicted in the heat map as described above. The total number of genes in the heat map is 324.

[4] = test system: miR-155-5p; assay: Whole genome expression profiling of Sézary syndrome cell line HuT78; conditions: 8 days
Procedure: as §1

[5] = test system: HuT102 cells; assay: Proliferation (cell number by ATP level) of HuT102 cells; conditions: HuT-102 cells over time; compared with bexarotene
Procedure: (§2) Since the level of ATP correlates directly with cell number, ATP was measured to determine the cell number. […] The reduction in cell number was accompanied by an increase in apoptosis as measured by caspase 3/7 activity (FIG. 14B). The caspase 3 and 7 proteins are members of the cysteine aspartic acid-specific protease (caspase) family. The caspase family plays key effector roles in apoptosis in mammalian cells. Caspase activity was normalized to ATP levels, as all cells have a low level of basal caspase activity that can confound the results if not normalized appropriately.

[6] = test system: HuT102 cells; assay: Apoptosis (caspase 3/7 activity) in HuT102 cells
Procedure: as §2
HuT102 cells were treated with 0.25 μM SAHA and 10 μM compound 3 (SEQ ID NO: 23) or 4 (SEQ ID NO: 25), individually or in combination. Cells were harvested daily to measure ATP levels and caspase 3/7 activity. A similar experiment was performed with 0.50 μM SAHA.

[7] = test system: My-La cells; assay: Proliferation of My-La cells; conditions: compared to compound 3
Text: (§3) FIGS. 17A and 17B show proliferation and activation of caspase 3/7 over time with compounds 3 (SEQ ID NO: 23) and 4 (SEQ ID NO: 25).

[8] = test system: My-La cells; assay: Caspase 3/7 activity in My-La cells; conditions: compared to compound 3
Text: as §3

[9] = test system: HuT102 and MyLa cell lines; assay: Cellular proliferation of CTCL cells after passive uptake; conditions: compared to compound 3
Procedure: (§4) Passive uptake of antimiR-155 compounds by CTCL cells produced a significant reduction in cellular proliferation and induced programmed cell death.
as §2

[10] = test system: HuT102 and MyLa cell lines; assay: Programmed cell death (apoptosis) of CTCL cells after passive uptake; conditions: compared to compound 3
Procedure: as §4, §2

| Substance | gene expression signature of four direct miR-155-5p targets versus untreated cells [2] | target de-repression [2] | antimiR activity by four-gene signature (Bach1, Jarid2, Picalm, Ship1) [2] | inhibition of proliferation [9] | apoptotic activity [10] | other results |
| --- | --- | --- | --- | --- | --- | --- |
| 5′-1Cs.dTs.dAs.1Gs.dAs.1As.dAs.1Gs.1As.dGs.1Ts.dAs.1Gs.1A-3′ (CTAGAAAGAGTAGA; LNA/DNA mix, phosphorothioate backbone; miR-155 control oligo 11317; (1)..(14) May be joined through phosphorothioate bonds; modified_base (1)..(1) May be locked nucleic acid cytidine; modified_base (4)..(4) May be locked nucleic acid guanosine; modified_base (6)..(6) May be locked nucleic acid adenosine; modified_base (8)..(8) May be locked nucleic acid guanosine; modified_base (9)..(9) May be locked nucleic acid adenosine; modified_ba) [control oligonucleotide, control oligonucleotide used in the dual luciferase reporter experiment] | – | – | – | – | – | de-repression of Renilla luciferase expression [1]: did not de-repress the expression of luciferase |
| 5′-lCs.dAs.lCs.dGs.dAs.lTs.lTs.dAs.lGs.dCs.lAs.lTs.lTs.lA-3′ (CACGATTAGCATTA; sugars from the 5' end ldlddlldldllll, all phosphorothioate, methylation of C not given here) [compound 4] | statistically significantly different from that of untreated cells | greater target de-repression | more active | greater inhibition of proliferation | greater apoptotic activity | genes up-regulated or down-regulated in all three mycosis fungoides cell lines ([3]; Day 4 and Day 8 signatures combined, Table 2): 587 genes; magnitude of gene regulation ([3]; MJ and HuT102, day 4 and day 8, heat map intensity): greater magnitude of gene regulation; change in gene expression [4]: did not show much change in the gene expression; effect on cell number (ATP) [5]: comparable to that seen with bexarotene; apoptosis (caspase 3/7 activity) in combination with SAHA ([6]; HuT102, 10 μM compound combined with 0.25 or 0.5 μM SAHA, compared to each treatment alone): increased apoptosis; induction of apoptosis (caspase 3/7 activity normalized to ATP) ([6]; HuT-102 cells over time, compared with bexarotene): greater induction of apoptosis than bexarotene; proliferation over time [7]: greater activity; activation of caspase 3/7 over time [8]: greater activity |
| 5′-lCs.dGs.lAs.lTs.lTs.dAs.lGs.dCs.lAs.lTs.lTs.lA-3′ (CGATTAGCATTA; sugars from the 5' end ldllldldllll, all phosphorothioate, methylation of C not given here) [compound 3] | statistically significantly different from that of untreated cells | – | – | – | – | – |
| 5′-lCs.dGs.lAs.lTs.lTs.lAs.lGs.dCs.lAs.lTs.lTs.lA-3′ (CGATTAGCATTA; sugars from the 5' end l1 d1 l5 d1 l4, all phosphorothioate, methylation of C not given here) [compound 2] | – | greater target de-repression | more active | greater inhibition of proliferation | greater apoptotic activity | – |
